From patent US10471025B2, “Compositions for use in treating parkinson's disease and related disorders” (Technophage, Investigação E Desenvolvimento Em …, priority 2015, dated 2019)
“And” between values parts separate entries of the source, which are not always exact repeats. Equal values may be shown once. “Also recorded” adds a separate entry of the source. Where a name gives a salt, the structure may show the parent alone. Read-outs that look alike come from different tables or passages of the source.

How the values were obtained:
[1] = storage below 25 éC; cited from earlier work
[2] = cited from earlier work
[3] = tested on: 6-OHDA mouse model; assay: Abnormal involuntary movements (AIMs), 6-OHDA mice, ON/OFF L-Dopa study (Example 7)
Experimental: The unilateral striatal 6-OHDA mice model was used in this study. Specifically, 12 week old CD-1 male mice received an injection of 6-OHDA neurotoxin at the following coordinates: AP +0.9 mm, ML +2.0 mm, DV −3.2 mm, as in the Example outlined above. Animals were injected with 10 ? g of 6-OHDA or ascorbic acid (vehicle control) to induce the disease. Disease was induced for 7 days and treatment then was initiated at this time point.
The following parameters were evaluated: hyperkinetic and/or dystonic movements of the contralateral forelimb on the sagittal or frontal plane (forelimb involuntary movements; FIG. 29A), twisted posture of the neck and upper body towards the side contralateral to the lesion (upper body involuntary movements; FIG. 29B), twitching of orofacial muscles, empty jaw movements and contralateral tongue protrusion (orofacial involuntary movements; FIG. 29C), circular locomotion with contralateral side bias (circular involuntary movements; FIG. 29D), total involuntary movements (FIG. 29E), and total involuntary movement along the different timepoints (FIG. 29F). […] Total abnormal involuntary movements (FIGS. […]) were the sum of all 4 different involuntary movements evaluated.
The same parameters were analyzed as for 20 days post injection (dpi).

[4] = chronic dosing; cited from earlier work
[5] = tested on: mouse; settings: cited from earlier work
[6] = cited from earlier work; for Bioavailability: 86 mg
[7] = tested on: 6-OHDA mouse model; assay: Rotarod test, unilateral striatal 6-OHDA mice (Example 5); format: in vivo
[8] = cited from earlier work; remark: listed apart in the source
[9] = tested on: cytochrome P450 (CY P) isoenzymes; settings: cited from earlier work
[10] = tested on: 6-OHDA mouse model; assay: Cylinder test, 6-OHDA mice (Example 5); format: in vivo
[11] = after a high-fat, high-calorie breakfast

For CC[C@@H](c1cccc(O)c1)[C@@H](C)CN(C)C [tapentadol, tapentadol hydrochloride], which Re-test period [1] is on record?
Its Re-test period is 30 months.

And the “Dose with exaggerated pharmacological effects” value ([2]; 52-week dog study, oral dosing)?
The value was 30 mg/kg.

What about the “Dose groups with QT prolongation” value ([2]; dogs, hydrochloride) of the same compound?
The value was 80 mg/kg and 120 mg/kg.

What about the “Induction of abnormal involuntary movements” value ([3]; L-Dopa treated groups vs tapentadol hydrochloride alone) of the same compound?
Its value is “did not; also recorded: does not induce AIMs”.

And the “Effect on L-Dopa induced AIMs / dyskinesia” value ([3]; concomitant administration with L-Dopa, hydrochloride)?
Its value is “not reverted; also recorded: did not revert L-Dopa induced AIMs; also recorded: did not increase dyskinesia”.

And the Hepatic hypertrophy [4]?
Its Hepatic hypertrophy is “present in all animal species”.

And the LD50 ([5]; intravenous administration, mice)?
Its LD50 is 47 mg/kg.

And the LD50 ([5]; oral administration, mouse)?
Its LD50 is 300 mg/kg.

And the LD50 ([5]; oral, mice)?
Its LD50 is 300 to 350 mg/kg.

And the “Conjugated form among related compounds excreted in the urine” value ([6]; 100 mg radiolabelled oral dose)?
The value was 69%.

What about the “Drug recovered in 5 days” value ([6]; 100 mg radiolabelled oral dose) of the same compound?
The value was 99.9%.

And the Excreted via urine ([6]; 100 mg radiolabelled oral dose)?
Its Excreted via urine is 99%.

What about the “Exposure to the conjugates, of the total” value ([6]; 100 mg radiolabelled oral dose) of the same compound?
Its value is “approximately 64%”.

What about the “Other forms of metabolites among related compounds excreted in the urine” value ([6]; 100 mg radiolabelled oral dose) of the same compound?
Its value is 27%.

And the “Parent drug among related compounds excreted in the urine” value ([6]; 100 mg radiolabelled oral dose)?
The value was 3%.

And the “Total dose excreted within 24 hours” value ([6]; 100 mg radiolabelled oral dose)?
Its value is 95%.

And the “Total drug excreted in the feces” value ([6]; 100 mg radiolabelled oral dose)?
The value was “Approximately 1%”.

What about the Cmax ([6]; ER) of the same compound?
The Cmax was 22.5 ng/mL.

And the Cmax ([6]; IR)?
Its Cmax is 64.2 ng/mL.

What about the Tmax ([6]; IR) of the same compound?
The Tmax was 1.5 h.

And the “Increase of AUC with food” value [6, 11]?
The value was 25%.

And the “Increase of Cmax with food” value [6, 11]?
Its value is 16%.

What about the Elimination half-life ([6]; after oral administration) of the same compound?
The Elimination half-life was 4 h.

And the “Metabolized to N-desmethyl tapentadol” value ([6]; by CY P2C9 and CY P2C19)?
Its value is 13%.

What about the “Metabolized to hydroxy tapentadol” value ([6]; by CY P2D6) of the same compound?
The value was 2%.

What about the Bioavailability ([6]; extended release (ER)) of the same compound?
The Bioavailability was 32%.

And the “Lower mean Cmax in elderly vs young adult subjects” value ([6]; geriatric patients)?
Its value is 16%.

What about the Parent compound metabolized ([6]; humans) of the same compound?
The Parent compound metabolized was “about 97%”.

What about the Bioavailability ([6]; immediate release (IR)) of the same compound?
Its Bioavailability is 32%.

And the “Drug excreted in urine as unchanged drug” value ([6]; in vivo)?
Its value is 3%.

What about the “Excretion via the kidneys (tapentadol and its metabolites)” value ([6]; in vivo) of the same compound?
Its value is 99%.

And the Total clearance ([6]; in vivo)?
The Total clearance was 1530 ± 177 mL/min.

And the “Volume of distribution (Vz)” value ([6]; intravenous administration, hydrochloride)?
Its value is 540 ± 98 L.

And the “AUC ratio vs normal hepatic function” value ([6]; mild hepatic impairment (Child-Pugh Score 5 to 6))?
Its value is 1.7.

And the “Cmax ratio vs normal hepatic function” value ([6]; mild hepatic impairment)?
Its value is 1.4.

What about the “t1/2 ratio vs normal hepatic function” value ([6]; mild hepatic impairment) of the same compound?
The value was 1.2.

What about the “AUC ratio vs normal hepatic function” value ([6]; moderate hepatic impairment (Child-Pugh Score 7 to 9)) of the same compound?
The value was 4.2.

What about the “Cmax ratio vs normal hepatic function” value ([6]; moderate hepatic impairment) of the same compound?
The value was 2.5.

And the “t1/2 ratio vs normal hepatic function” value ([6]; moderate hepatic impairment)?
The value was 1.4.

And the Mean accumulation factor ([6]; multiple (every 6 hour) dose study, 75 to 175 mg tapentadol)?
Its Mean accumulation factor is 1.6.

What about the “Time of maximum serum concentrations after dosing” value ([6]; oral) of the same compound?
The value was “around 1.25 hours”.

What about the Mean absolute bioavailability ([6]; single-dose administration (fasting)) of the same compound?
The Mean absolute bioavailability was “approximately 32%”.

And the “Dose excreted as O-glucuronide” value ([6]; urine)?
Its value is 55%.

What about the “Dose excreted as sulfate of tapentadol” value ([6]; urine) of the same compound?
Its value is 15%.

What about the “Rotarod: latency to fall and speed, recovery” value ([7]; C1 2.8 mg/kg/day i.p., 8 and 15 days post lesion) of the same compound?
Its value is “best recovery between groups, although not significant”.

And the “Rotarod: latency to fall and speed, recovery” value ([7]; daily i.p., dosages tested (C1 and C2))?
The value was “behavioral recovery over time”.

What about the “Absorption after oral administration” value ([8]; dog, mice, and rats) of the same compound?
The value was “completely absorbed”.

What about the Bioavailability ([8]; dogs and rats) of the same compound?
Its Bioavailability is “low”.

And the Placenta-blood barrier crossing ([8]; in vivo)?
The Placenta-blood barrier crossing was “crosses the placenta-blood barrier, but to a lesser extent”.

And the “Induction of CYP isoenzymes” value [9]?
The value was “no significant induction”.

What about the “Cylinder test: recovery over the parameters analyzed” value ([10]; concentration 1 (2.8 mg/kg/day), hydrochloride, 2.8 mg/kg/day) of the same compound?
The value was “showed a recovery; also recorded: strongest recovery”.

What about the “Cylinder test: recovery over the parameters analyzed” value ([10]; concentration 2 (0.9 mg/kg/day)) of the same compound?
Its value is “did not show significant recovery”.
